Test results: ChEMBL document CHEMBL1150683, “Two new carbazole alkaloids from Murraya koenigii” (J Nat Prod, 2003)

Target: Cathepsin B (Homo sapiens, UniProt P07858)
Assay: Inhibition of cathepsin B mediated osteoporotic activity

COc1cc2c([nH]c3c4c(c(C)cc32)OC(C)(C)C=C4)c(-c2c(O)c(OC)cc3c2[nH]c2c4c(c(C)cc23)OC(C)(C)C=C4)c1O
IC50: 2110 nM
